The source made the active and inactive calls. The calls are words filed in the database; no cut-off is given here.
Key:
Rattus norvegicus [1] = test: Antidiabetic activity in Sprague-Dawley Rattus norvegicus (rat) assessed as STZ-induced fasting plasma glucose level at 5% administered QD for 12 weeks (reference value: 318.4 +/- 11.9 mg/dl); format: functional
Rattus norvegicus [2] = test: Antidiabetic activity in Sprague-Dawley Rattus norvegicus (rat) assessed as STZ-induced fasting plasma free fatty acid level at 5% administered QD for 12 weeks (reference value: 230.8 +/- 16.6 uM); format: functional
Rattus norvegicus [3] = test: Antidiabetic activity in Sprague-Dawley Rattus norvegicus (rat) STZ-induced diabetic model assessed as decrease in oral glucose-induced plasma insulin level at 5% administered QD for 6 weeks prior to glucose-challenge measured after 120 min by oral glucose tolerance test relative to control; format: functional, organism-based
Rattus norvegicus [4] = test: Antidiabetic activity in Sprague-Dawley Rattus norvegicus (rat) STZ-induced diabetic model assessed as decrease in oral glucose-induced plasma insulin level at 5% administered QD for 12 weeks prior to glucose-challenge measured after 120 min by oral glucose tolerance test relative to control; format: functional, organism-based
Rattus norvegicus [5] = test: Antidiabetic activity in Sprague-Dawley Rattus norvegicus (rat) assessed as STZ-induced body weight at 5% administered QD for 12 weeks (reference value: 268.6 +/- 9.3 g); format: functional
Rattus norvegicus [6] = test: Antidiabetic activity in Sprague-Dawley Rattus norvegicus (rat) assessed as STZ-induced fasting plasma insulin level at 5% administered QD for 12 weeks (reference value: 13.5 +/- 1.6 uU/ml); format: functional
Rattus norvegicus [7] = test: Antidiabetic activity in Sprague-Dawley Rattus norvegicus (rat) STZ-induced diabetic model assessed as decrease in oral glucose-induced plasma glucose level at 5% administered QD for 12 weeks prior to glucose-challenge measured after 120 min by oral glucose tolerance test relative to control; format: functional, organism-based
Rattus norvegicus [8] = test: Antidiabetic activity in Sprague-Dawley Rattus norvegicus (rat) STZ-induced diabetic model assessed as decrease in oral glucose-induced plasma glucose level at 5% administered QD for 6 weeks prior to glucose-challenge measured after 120 min by oral glucose tolerence test relative to control; format: functional, organism-based
Rattus norvegicus [9] = test: Antidiabetic activity in Sprague-Dawley Rattus norvegicus (rat) assessed as STZ-induced fasting plasma triglyceride level at 5% administered QD for 12 weeks (reference value: 54.4 +/- 12.3 […]); format: functional

| SMILES | Activity (Rattus norvegicus [1]) [mg/dL] | Activity (Rattus norvegicus [2]) [µM] | Activity (Rattus norvegicus [3]) | Activity (Rattus norvegicus [4]) | Activity (Rattus norvegicus [5]) [g] | Activity (Rattus norvegicus [6]) [uU/ml] | Activity (Rattus norvegicus [7]) | Activity (Rattus norvegicus [8]) | Activity (Rattus norvegicus [9]) [mg/dL] |
| --- | --- | --- | --- | --- | --- | --- | --- | --- | --- |
| O=C(O[C@@H]1Cc2c(O)cc(O)cc2O[C@@H]1c1cc(O)c(O)c(O)c1)c1cc(O)c(O)c(O)c1 [EPIGALOCATECHIN GALLATE] | 169.6 | 151.1 | Active | Active | 251.5 | 10.2 | Active | Active | 47.9 |
| O=C(O[C@@H]1Cc2c(O)cc(O)cc2O[C@H]1c1cc(O)c(O)c(O)c1)c1cc(O)c(O)c(O)c1 [GALLOCATECHIN GALLATE] | 154.3 | 133.5 | Active | Active | 247.7 | 8.5 | Active | Active | 38.3 |

From ChEMBL document CHEMBL3046376, “Epimerization of epigallocatechin gallate to gallocatechin gallate and its anti-diabetic activity” (2013)
